Paper PMC5865165, “Mechanism of action of the third generation benzopyrans and evaluation of their broad anti-cancer activity in vitro and in vivo” (Scientific Reports, 2018)

Key:
Assay in all cases: cells
Design in all cases: species or system melanoma cell lines (3D spheres); 3D melanoma tumour sphere viability, CellTiter-Glo 3D luminescence, 7-point dose response
[1] = tested on: A2058; conditions: Homo sapiens, A2058; 3D tumour spheres, 72 h
Method: (§1) Dose responses to TRX-E-009-1 and TRX-E-002-1 were performed using 3D tumour sphere cultures of 21 melanoma cell lines. Cells were dissociated and seeded[17] at previously optimized densities into 384-well Ultra-Low Attachment plates (#3827, Corning). Cells were treated the following day with a 7 point 3-fold dilution series, 5.4 µM to 7.4 nM using a Sciclone ALH 3000 [compound left out] handling robot. Changes in cell viability were assayed at 72 hours using the Cell Titre Glo 3D assay (#G9683, Promega), luminescence reads were performed on a SynergyMx Plate Reader (BioTek Instruments). Luminescence values were normalized to the DMSO/vehicle control prior to comparisons. […] A second independent panel of melanoma cell lines grown as tumour spheres was assessed for sensitivity to both TRX-E-009-1 and TRX-E-002-1. […] As found with the Oncopanel melanoma cell lines, a subset (one third) of the cell lines were sensitive to killing by these BP compounds, with <20% viability at the highest concentration tested. These lines will be referred to as sensitive. The cell lines with >25% viability at the highest dose appear comparatively resistant to killing by the compounds and are referred to as resistant. Subsequent experiments utilized A2058, D04, SKMEL13, and A375 as representative of sensitive cell lines, while A15, SKMEL28, C013, and C002 were used to assess the effects of TRX-E-009-1 and TRX-E-002-1 on resistant lines.

[2] = tested on: SKMEL13; conditions: 3D tumour spheres, 72 h
Method: as §1

[3] = tested on: D25; conditions: 3D tumour spheres, 72 h
Method: as §1

[4] = tested on: C045; conditions: 3D tumour spheres, 72 h
Method: as §1

[5] = tested on: BL; conditions: 3D tumour spheres, 72 h
Method: as §1

[6] = tested on: C054; conditions: 3D tumour spheres, 72 h
Method: as §1

[7] = tested on: SKMEL28; conditions: Homo sapiens, SK-MEL-28; 3D tumour spheres, 72 h
Method: as §1

[8] = tested on: MM96L; conditions: Homo sapiens, MM96L; 3D tumour spheres, 72 h
Method: as §1

[9] = tested on: MM603; conditions: 3D tumour spheres, 72 h
Method: as §1

[10] = tested on: MM329; conditions: 3D tumour spheres, 72 h
Method: as §1

[11] = tested on: D28; conditions: 3D tumour spheres, 72 h
Method: as §1

[12] = tested on: C002; conditions: 3D tumour spheres, 72 h
Method: as §1

[13] = tested on: C052; conditions: 3D tumour spheres, 72 h
Method: as §1

[14] = tested on: MM415; conditions: 3D tumour spheres, 72 h
Method: as §1

[15] = tested on: A15; conditions: 3D tumour spheres, 72 h
Method: as §1

[16] = tested on: D04; conditions: 3D tumour spheres, 72 h
Method: as §1

[17] = tested on: HT144; conditions: Homo sapiens, HT-144; 3D tumour spheres, 72 h
Method: as §1

[18] = tested on: MM370; conditions: 3D tumour spheres, 72 h
Method: as §1

[19] = tested on: D20; conditions: 3D tumour spheres, 72 h
Method: as §1

[20] = tested on: C013; conditions: 3D tumour spheres, 72 h
Method: as §1

[21] = tested on: A375; conditions: Homo sapiens, A-375; 3D tumour spheres, 72 h
Method: as §1

IC50 [2]: 244 nM | IC50 [7]: 4580 nM | IC50 [17]: 233 nM | IC50 [21]: 321 nM
SMILES: COc1cc([C@@H]2COc3c(ccc(O)c3C)[C@@H]2c2ccc(O)c(F)c2)cc(OC)c1O (racemic) [TRX-E-009-1]
IC50 [1]: 292 nM | IC50 [3]: 5020 nM | IC50 [4]: 461 nM | IC50 [5]: 340 nM | IC50 [6]: 857 nM | IC50 [8]: 281 nM | IC50 [9]: 284 nM | IC50 [10]: 178 nM | IC50 [11]: 787 nM | IC50 [12]: 977 nM | IC50 [13]: 292 nM | IC50 [14]: 323 nM | IC50 [15]: 489 nM | IC50 [16]: 253 nM | IC50 [18]: 290 nM | IC50 [19]: 1110 nM | IC50 [20]: 318 nM
